The structures appear in SMILES notation.

Common to all, as to assay type: in vivo
The subject of test [1] is Alopecurus myosuroides. As to the kind of experiment: Pre-emergence herbicidal effect, greenhouse pot test. The conditions noted are these: 504 h, 320 g a.i./ha, visual score after 3 weeks, 100% = plants have died, 0% = like control, read-out: Herbicidal effect against [%] ALOMY. An excerpt:
(§1) Seeds of monocotyledonous and dicotyledonous weed plants and crop plants are laid out in wood-fibre pots in sandy loam and covered with soil. The compounds according to the invention formulated in the form of wettable powders (WP) or as emulsion concentrates (EC) are then applied as aqueous suspension or emulsion at a water application rate of 600 to 800 l/ha (converted) with the addition of 0.2% wetting agent to the surface of the covering soil. After the treatment, the pots are placed in a greenhouse and kept under good growth conditions for the trial plants. The damage to the test plants is scored visually after a test period of 3 weeks by comparison with untreated controls (herbicidal activity in percent (%): 100% activity=the plants have died, 0% activity=like control plants). [table]

Test [2] has as its system Avena fatua. The test is described as above. Particulars: 504 h, 320 g a.i./ha, visual score after 3 weeks, 100% = plants have died, 0% = like control, read-out: Herbicidal effect against [%] AVEFA.
Source text: as §1

Test [3] has as its system Echinochloa crus-galli. The test is described as above. The conditions noted are these: 504 h, 320 g a.i./ha, visual score after 3 weeks, 100% = plants have died, 0% = like control, read-out: Herbicidal effect against [%] ECHCG.
Source text: as §1

Test [4] deals with Lolium multiflorum. Described as above. The conditions noted are these: 320 g a.i./ha, visual score after 3 weeks, 100% = plants have died, 0% = like control.
Source text: as §1

In test [5] the test system is Setaria viridis. The test is described as above. The conditions noted are these: 504 h, 320 g a.i./ha, visual score after 3 weeks, 100% = plants have died, 0% = like control, read-out: Herbicidal effect against [%] SETVI.
Source text: as §1

In test [6] the test system is Alopecurus myosuroides. As to the kind of experiment: Post-emergence herbicidal effect, greenhouse pot test. The conditions noted are these: 504 h, 80 g a.i./ha, one-leaf stage, visual score after about 3 weeks, 100% = plants have died, read-out: Herbicidal effect against [%] ALOMY. As for the experimental part:
(§2) [table] Seeds of monocotyledonous and dicotyledonous weed and crop plants are laid out in sandy loam in wood-fibre pots, covered with soil and cultivated in a greenhouse under good growth conditions. 2 to 3 weeks after sowing, the test plants are treated at the one-leaf stage. The compounds according to the invention, formulated in the form of wettable powders (WP) or as emulsion concentrates (EC), are then sprayed as aqueous suspension or emulsion at a water application rate of 600 to 800 l/ha (converted) with the addition of 0.2% of wetting agent onto the green parts of the plants. After the test plants have been left to stand in the greenhouse under optimal growth conditions for about 3 weeks, the action of the preparations is assessed visually in comparison to untreated controls (herbicidal action in percent (%): 100% activity=the plants have died, 0% activity=like control plants).

In test [7] the test system is Echinochloa crus-galli. The description is as above. Particulars: 504 h, 80 g a.i./ha, one-leaf stage, visual score after about 3 weeks, 100% = plants have died, read-out: Herbicidal effect against [%] ECHCG. As for the experimental part: as §2
In test [8] the test system is Setaria viridis. The test is described as above. Particulars: 504 h, 80 g a.i./ha, one-leaf stage, visual score after about 3 weeks, 100% = plants have died, read-out: Herbicidal effect against [%] SETVI. As for the experimental part:
as §2

For `CCc1cc(C#CC2CC2)cc(C)c1C1=C(O)C2(CCC(OC)CC2)NC1=O` (centres unmarked) [Example D10], the pest or weed control at 320 g/ha in test [1], in test [2], in test [3] and in test [5] was 80 to 100% throughout. Moreover, the “Herbicidal effect against [%] LOLMU” value in test [4] was 100%. In addition, the pest or weed control at 80 g/ha in test [6], in test [7] and in test [8] was 90 to 100% in each case.
For `COC1CCC2(CC1)NC(=O)C(c1c(C)cc(C#CC3CC3)cc1C)=C2O` (stereo not drawn) [Example D11, cis-3-[4-(Cyclopropylethynyl)-2,6-dimethylphenyl]-4-hydroxy-8-methoxy-1-azaspiro[4.5]dec-3-en-2-one], the pest or weed control at 320 g/ha in test [1], in test [2], in test [3] and in test [5] was 80 to 100% each time. For the same compound, the “Herbicidal effect against [%] LOLMU” value in test [4] turned out to be 100%. In addition, the pest or weed control at 80 g/ha in test [6], in test [7] and in test [8] was 90 to 100% each time.
On to `CCOC(=O)OC1=C(c2c(C)cc(C#CC3CC3)cc2CC)C(=O)NC12CCC(OC)CC2` (centres unmarked) [Example P14], for which the pest or weed control at 320 g/ha in test [1], in test [2], in test [3] and in test [5] was 80 to 100% throughout. Moreover, the “Herbicidal effect against [%] LOLMU” value in test [4] is on record as 100%. Moreover, the pest or weed control at 80 g/ha in test [6], in test [7] and in test [8] was 90 to 100% throughout.
On to `CCc1cc(C#CC2CC2)cc(C)c1C1=C(OC(=O)C(C)C)C2(CCC(OC)CC2)NC1=O` (centres unmarked) [Example P15], for which the pest or weed control at 320 g/ha in test [1], in test [2], in test [3] and in test [5] was 80 to 100% throughout. In test [4], the “Herbicidal effect against [%] LOLMU” value is recorded as 100%. Also, the pest or weed control at 80 g/ha in test [6], in test [7] and in test [8] was 90 to 100% each time.

The values are drawn from patent US20180282275A1, “New alkynyl-substituted 3-phenylpyrrolidine-2,4-diones and use thereof as herbicides” (Bayer CropScience Aktiengesellschaft, priority 2015, published 2018).
